Among the data in PubChem BioAssay (NCI) are TGI values, retold here.

In general, TGI refers to the concentration giving total growth inhibition. A low value points to greater sensitivity of the cells.

Structures are written as SMILES.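 Where inhibition never reached the appropriate level, the endpoint shown equals the highest concentration tested. Otherwise, values were interpolated linearly from a five-concentration, 48-hour dose response in 96-well plates. TGI marks complete inhibition of growth.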 Some results are limits rather than exact numbers.

Holding throughout (experiment): DTP human tumour cell line panel, 48 h
The test system of assay [1] is SNB-19 CNS.
Assay [2] concerns SK-MEL-5 melanoma.
Assay [3] relates to T-47D breast.
Assay [4] relates to EKVX NSCLC.
Assay [5] concerns SF-295 CNS.
The subject of assay [6] is OVCAR-5 ovarian.
Assay [7] has as its system HT29 colon.
Assay [8] has as its system HL-60(TB) leukemia.
For assay [9], the system named is K-562 leukemia.

For `Cc1ccc(C(=O)C2CC3(CCC2(O)c2ccc(C)cc2)CC(=O)Nc2ccccc2C3=O)cc1` (stereo not drawn), the TGI in assay [1] was more than 100 µM; in [2] it was 97.6 µM; in assay [3], more than 100 µM; in assay [4], more than 100 µM; in assay [5], more than 100 µM; in [6], more than 100 µM. For the same molecule, the TGI in assay [7] and in assay [8] was more than 100 µM in each case.

For the molecule `COc1ccc(N=C(SSC(=Nc2ccc(OC)cc2)c2ccc([N+](=O)[O-])o2)c2ccc([N+](=O)[O-])o2)cc1`, the TGI in assay [1] was 3.26 µM; in assay [2], 19.5 µM; in [3], 4.2 µM; in assay [4] it was 3.47 µM; in assay [5] it was 6.14 µM; in assay [6], 5.01 µM. Also, the total growth inhibition concentration (TGI) in [9] is more than 25.3 µM; in [7], 5.53 µM; in [8] it was 7.07 µM.

As for `O=C(Nc1nc2ccc([N+](=O)[O-])cc2s1)c1cc([N+](=O)[O-])ccc1Cl`, the total growth inhibition concentration (TGI) in assay [2] was 2.83 µM; in [3], more than 100 µM; in assay [4], 8.55 µM; in [5], 14.8 µM; in [6], 17 µM; in [7], 6.03 µM.

Take `CCCSC1=N/C(=C\c2ccco2)C(=O)N1`: the concentration for total growth inhibition (TGI) in [1], in assay [3], in assay [4], in assay [5], in assay [6] and in assay [7] was more than 100 µM in each case.

For the molecule `CCc1nc2cc(F)ccc2[nH]c1=O`, the TGI in assay [1], in assay [2], in assay [4], in assay [5], in assay [6] and in [9] was more than 100 µM throughout. Further, the TGI in [7] and in assay [8] was more than 100 µM each time.

With `CSC(=NCCCN=C(NS(=O)(=O)c1ccc(Cl)cc1)SC)NS(=O)(=O)c1ccc(Cl)cc1`, the TGI is more than 100 µM in [1]; more than 100 µM in assay [3]; 53.1 µM in [4]; more than 100 µM in [5]; more than 100 µM in [6]; more than 100 µM in [9]. Also, the total growth inhibition concentration (TGI) in assay [7] was more than 100 µM; in [8], 47.1 µM.

Consider `O=C(c1ccccc1)n1c2ccc(Br)cc2c2nc3ccccc3nc21`, for which the concentration for total growth inhibition (TGI) in [1], in [2], in assay [4], in [5], in assay [6] and in [9] was more than 100 µM each time. The concentration for total growth inhibition (TGI) in [7] and in assay [8] was more than 100 µM in each case.

For `CCCCC(C)(C/C=C/[C@@H]1[C@@H](C(O)CCCCCC(=O)OC)C(=O)C[C@H]1O[Si](C)(C)C(C)(C)C)O[Si](C)(C)C` (stereo partly drawn), the TGI in [1], in assay [2], in assay [4], in [5], in assay [6] and in assay [9] was more than 100 µM each time. Also, in [7], the TGI is more than 100 µM.

Turning to `CC(C)S1=C2C(=O)CC(C)(C)CC2=Nc2ccccc21` (stereo not drawn), the TGI in assay [1], in assay [2], in assay [3], in [4], in [5] and in [6] was more than 100 µM in each case. Moreover, the concentration for total growth inhibition (TGI) in assay [9] and in assay [7] was more than 100 µM in each case.

Regarding `COc1ccc(Sc2ccccc2[N+](=O)[O-])cc1`, the TGI was more than 100 µM in assay [1]; more than 100 µM in [2]; more than 100 µM in [4]; more than 100 µM in [6]; more than 100 µM in assay [9]; 59.9 µM in [7]. Moreover, the TGI in assay [8] amounted to 20.8 µM.

In the case of `COc1ccc(OC)c2c(Nc3ccc(S(=O)(=O)O)c4cc(S(=O)(=O)O)cc(S(=O)(=O)O)c34)cc(C)nc12`, the total growth inhibition concentration (TGI) in assay [2], in assay [3], in assay [4], in [5], in [6] and in [9] was more than 100 µM throughout. The TGI in [7] and in [8] was more than 100 µM in each case.

On to `O=CC12CCCN1CCC2`, for which the TGI in assay [1], in assay [2], in [3], in assay [4], in assay [5] and in assay [6] was more than 100 µM each time. For the same molecule, the TGI in assay [9] and in [7] was more than 100 µM each time.

Take `CCOC(=O)N/N=C(/N)Cc1ccc(Cl)cc1`: the total growth inhibition concentration (TGI) in [1], in assay [2], in assay [4], in assay [5], in assay [6] and in assay [9] was more than 100 µM each time. The molecule also had a TGI in assay [7] of more than 100 µM.

Take `CC(=O)Oc1cc(OC(C)=O)c2c(c1C)CC[C@@H]1[C@@H]2CC[C@]2(C)[C@@H](OC(C)=O)CC[C@@H]12`: the concentration for total growth inhibition (TGI) in [1] is 33.3 µM; in assay [2], 30.8 µM; in assay [4] it was 28 µM; in [5], 38 µM; in [9], 89.2 µM; in assay [7], 29.8 µM. The molecule also gave a TGI in assay [8] of 54.6 µM.

On to `O=C(C[N+]1(c2ccccc2)CCOCC1)c1ccccc1`, for which the TGI in assay [1], in assay [2], in [3], in assay [4], in assay [5] and in [6] was more than 100 µM in each case. The concentration for total growth inhibition (TGI) in assay [9] and in assay [7] was more than 100 µM each time.

`CCCCCNC(=O)OC1CCn2c1nc1c2C(=O)C(C)=C(N2CC2)C1=O` (stereo not drawn): the total growth inhibition concentration (TGI) in assay [1] is 11.5 µM; in assay [2] it was 1.73 µM; in assay [3] it was 7.16 µM; in [5] it was 2.69 µM; in assay [6], 7.77 µM; in assay [9] it was 7.75 µM. Besides, the figures for the total growth inhibition concentration (TGI) in assay [7] and in [8] were 2.77 µM and more than 100 µM, respectively.

Turning to `COc1ccc(-c2cc(=O)c3cc(OC)c(OC)cc3[nH]2)cc1OC`, the total growth inhibition concentration (TGI) in [1], in assay [2], in assay [4], in assay [5], in [6] and in [9] was more than 100 µM each time. In assay [7], this molecule gave a TGI of more than 100 µM.
